Test results published in patent US20110288082A1, “METHODS AND COMPOSITIONS FOR INHIBITION OF THE TRANSITIONAL ENDOPLASMIC RETICULUM ATPASE” (priority 2010, published 2011).
Several values for one entry are separate records, joined by “and”; a condition that tells them apart may be missing. Identical values can stand only once. Like-named read-outs stand apart in the source and are kept apart here.

Key:
p97 = p97 (Homo sapiens, UniProt P55072); assay: p97 ATPase assay (Kinase Glo Plus; biomol green for compounds that interfere with luciferase); assay type: biochemical
Chain of p97 (P55072 2-806 limits assumed): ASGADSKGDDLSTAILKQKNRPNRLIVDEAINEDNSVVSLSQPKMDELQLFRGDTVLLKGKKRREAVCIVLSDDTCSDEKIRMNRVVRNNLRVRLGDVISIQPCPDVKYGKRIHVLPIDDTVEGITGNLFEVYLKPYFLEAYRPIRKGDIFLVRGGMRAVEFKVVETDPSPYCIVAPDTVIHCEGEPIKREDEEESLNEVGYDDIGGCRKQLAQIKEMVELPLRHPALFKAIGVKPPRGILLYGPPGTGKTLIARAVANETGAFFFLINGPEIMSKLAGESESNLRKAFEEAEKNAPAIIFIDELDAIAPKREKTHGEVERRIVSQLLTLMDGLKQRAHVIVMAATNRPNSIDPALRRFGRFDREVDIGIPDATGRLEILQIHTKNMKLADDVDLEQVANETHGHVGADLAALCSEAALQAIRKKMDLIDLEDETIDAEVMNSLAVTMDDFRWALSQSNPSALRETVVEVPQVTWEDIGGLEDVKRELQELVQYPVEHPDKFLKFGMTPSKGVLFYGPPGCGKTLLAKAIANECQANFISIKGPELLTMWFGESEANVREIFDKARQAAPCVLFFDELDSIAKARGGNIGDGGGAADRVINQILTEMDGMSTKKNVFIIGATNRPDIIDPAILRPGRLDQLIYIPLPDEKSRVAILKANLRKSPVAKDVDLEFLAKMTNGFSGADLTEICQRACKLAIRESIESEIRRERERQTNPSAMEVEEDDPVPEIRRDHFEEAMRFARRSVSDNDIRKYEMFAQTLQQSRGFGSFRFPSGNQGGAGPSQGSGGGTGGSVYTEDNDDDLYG
Description: Assay Buffer (20 μL of 2.5× concentration, where 1×=50 mM Tris pH 7.4, 20 mM MgCl2, 1 mM EDTA, 0.5 mM TCEP) was dispensed into each well of a 96 well plate. Purified p97 (25 μL of 50 μM) was diluted in 975 μL, of 1× Assay Buffer and 10 μL was dispensed in each well. Test compound (10 μL) or 5% DMSO (10 μL) was then added to each well and the plate was incubated at room temperature for 10 min. The ATPase assay was carried out by adding to each well 10 μL of 500 μM ATP (pH 7.5), incubating at room temperature for 60 min, and then adding 50 μL Kinase Glo Plus reagent (Promega) followed by a final 10 min incubation at room temperature in the dark. Luminescence was read on an Analyst AD (Molecular Devices). Compounds were assayed at a range of concentrations (0, 0.048, 0.24, 1.2, 6, 30 μM) in triplicate. The percent of remaining activity for each reaction was calculated using the following mathematical expression: ((Test Compound-High Control)/(Low Control-High Control))*100. Test_Compound is defined as wells containing test compound, Low_Control is defined as wells containing DMSO, High_Control is defined as wells containing no p97 protein. […] The result was expressed as mean +/− standard error. For assays with Myriad 12 and 19, 100 μL of biomol green reagent (Enzo Life Sciences) was added to each well instead of kinase Glo Plus (Promega) and absorbance at 630 nm was measured. This was done because these compounds interfered with luciferase activity. […]

[1] = tested on: p97-dependent Ub^G76V-GFP degradation in HeLa cells; assay: Ub^G76V-GFP degradation (turn-over) assay; assay type: cell-based, human
Description: Ub^G76V-GFP Degradation Assay
Two GFP images with 100 ms exposure time per well were acquired and the average GFP intensity per area of a HeLa cell was determined by using MetaXpress software. Mean GFP intensity of 300-500 cells was calculated using Excel. Normalized GFP intensity was calculated using the following formula: (Test compound−Background)/(Basal GFP intensity—Background). Where: Test compound is defined as Mean GFP intensity of Ub^G76V-GFP-expressing cells treated with the test compound. Background is defined as background GFP intensity of HeLa cells. Basal GFP intensity is defined as mean GFP intensity of Ub^G76V-GFP-expressing cells treated with DMSO. […] The percent of remaining k for each compound is calculated using the following formula: (Test compound/DMSO control)*100. Where: Test_compound is defined as k determined from wells containing test compound, DMSO control is defined as k determined from wells containing DMSO.

[2] = purified p97, ATP, 60 min room temperature, mean +/- standard error
[3] = Homo sapiens, HeLa, read-out: IC50 (μM) Ub^G76V-GFP turn over, Ub^G76V-GFP-expressing HeLa cells, degradation rate constant k from 90 to 180 min, mean +/- standard error
[4] = Homo sapiens, HeLa, read-out: IC50 (μM) Ub^G76V-GFP turn over, p97-dependent Ub^G76V-GFP degradation turn-over assay

| SMILES | IC50 [1, 3] | IC50 [1, 4] | also measured |
| --- | --- | --- | --- |
| Fc1ccc(Nc2nc(NCc3ccccc3)c3ccccc3n2)cc1 [II-4] | 9.4 ± 1 µM | – | IC50 (p97; [2]): 3.8 ± 1.2 µM |
| Brc1ccc(Nc2nc(NCc3ccccc3)c3ccccc3n2)cc1 [II-5] | 6 ± 0.8 µM | – | IC50 (p97; [2]): 1.8 ± 0.4 µM |
| COc1ccc(Nc2nc(NCc3ccccc3)c3ccccc3n2)cc1 [II-6] | 4.5 ± 1.1 µM | – | IC50 (p97; [2]): 3.8 µM and 3.5 µM; IC50 ([1]; read-out: IC50 (μM) Ub^G76V-GFP turn over, Ub^G76V-GFP-expressing HeLa cells, degradation rate constant k from 90 to 180 min, mean +/- standard error): 4.8 ± 0.7 µM |
| Cc1ccccc1Nc1nc(NCc2ccccc2)c2ccccc2n1 [II-7] | 10 ± 2 µM | – | IC50 (p97; [2]): 3.4 ± 1.5 µM |
| Clc1ccccc1Nc1nc(NCc2ccccc2)c2ccccc2n1 [II-8] | – | 13 ± 2 µM | IC50 (p97; p97 ATPase assay): 69 ± 25 µM |
| Fc1ccccc1Nc1nc(NCc2ccccc2)c2ccccc2n1 [II-9] | 10 ± 2 µM | – | IC50 (p97; [2]): 0.85 ± 0.17 µM |
| Brc1ccccc1Nc1nc(NCc2ccccc2)c2ccccc2n1 [II-10] | – | 13 ± 2 µM | IC50 (p97; p97 ATPase assay): 64 ± 24 µM |
| Clc1cccc(Nc2nc(NCc3ccccc3)c3ccccc3n2)c1 [II-13] | 7.8 ± 1.3 µM | – | – |
| Fc1cccc(Nc2nc(NCc3ccccc3)c3ccccc3n2)c1 [II-14] | 2.7 ± 0.4 µM | – | – |
| Cc1ccc(CNc2nc(NCc3ccccc3)c3ccccc3n2)cc1 [IV-1] | 1.5 ± 0.4 µM | – | – |
| Fc1cccc(CNc2nc(NCc3ccccc3)c3ccccc3n2)c1 [IV-13] | 2.8 ± 0.4 µM | – | – |
| Brc1cccc(CNc2nc(NCc3ccccc3)c3ccccc3n2)c1 [IV-14] | 2.8 ± 0.4 µM | – | – |
| COc1cccc(CNc2nc(NCc3ccccc3)c3ccccc3n2)c1 [IV-15] | 2.5 ± 0.8 µM | – | – |
| FC(F)(F)c1ccc(CNc2nc(NCc3ccccc3)c3ccccc3n2)cc1 [IV-16] | 2.3 ± 0.3 µM | – | – |
| COc1cccc2c(NCc3ccccc3)nc(NCc3cccs3)nc12 [XI-14] | 1.8 ± 0.3 µM | – | – |
| COc1cccc2c(NCc3ccccc3)nc(Nc3cccc(Cl)c3)nc12 [XI-16] | 5.4 ± 1 µM | – | – |
| COc1cccc2c(NCc3ccccc3)nc(Nc3cccc(F)c3)nc12 [XI-17] | 4.8 ± 0.7 µM | – | – |
| COc1cccc2c(NCc3ccccn3)nc(N3CCNc4ccccc43)nc12 [XLIII] | – | 16 ± 2 µM | – |

| SMILES | IC50 [1, 3] | IC50 [1, 4] | also measured |
| --- | --- | --- | --- |
| c1ccc(CNc2nc(N3CCOCC3)nc3ccccc23)cc1 [XLIV] | – | 36 ± 9 µM | – |
| N#CC(C(=O)COC(=O)CNc1ccc(C(F)(F)F)cc1[N+](=O)[O-])=C1Nc2ccccc2N1 [XLI] | – | 6.5 ± 0.8 µM | – |
| N#CC(C(=O)COC(=O)C1COc2ccccc2O1)=C1Nc2ccccc2N1 (centres unmarked) [XL] | – | 10 ± 1.4 µM | – |
| c1ccc(CNc2nc(N3CCCCC3)nc3ccccc23)cc1 [XXII] | – | 7.3 ± 2 µM | – |
| CCc1ccc(Nc2nc(N)nc(CCl)n2)cc1 [XXIX] | – | 18 ± 3 µM | – |
| Nc1nc(CCl)nc(N2CCCc3ccccc32)n1 [XXVIII] | – | 17 ± 3 µM | – |
| Nc1nc(Nc2cccc(Cl)c2)nc(C(Cl)Cl)n1 [XXVII] | – | 13 ± 3 µM | – |
| Nc1nc(CCl)nc(N2CCc3ccccc32)n1 [XXVI] | – | 10.4 ± 1.5 µM | – |
| N#CC(C(=O)COC(=O)c1ccccc1Cc1ccccc1)=C1Nc2ccccc2N1 [XXXIII] | – | 3.4 ± 0.6 µM | – |
| N#CC(C(=O)COC(=O)COc1ccc(Cl)cc1)=C1Nc2ccccc2N1 [XXXII] | – | 2.6 ± 0.2 µM | – |
| N#CC(C(=O)COC(=O)COc1cccc(Br)c1)=C1Nc2ccccc2N1 [XXXIV] | – | 5.9 ± 0.8 µM | – |
| N#CC(C(=O)COC(=O)CCC(=O)c1ccc2c(c1)OCCO2)=C1Nc2ccccc2N1 [XXXIX] | – | 6.3 ± 0.6 µM | – |
| Nc1nc(CCl)nc(Nc2ccc(Cl)cc2)n1 [XXXI] | – | 8 ± 2 µM | – |
| Cc1cc(OCC(=O)OCC(=O)C(C#N)=C2Nc3ccccc3N2)ccc1Cl [XXXVIII] | – | 16 ± 1.4 µM | – |
| Cc1cc(C)cc(OCC(=O)OCC(=O)C(C#N)=C2Nc3ccccc3N2)c1 [XXXVII] | – | 13 ± 1.4 µM | – |
| Cc1cccc(C)c1OCC(=O)OCC(=O)C(C#N)=C1Nc2ccccc2N1 [XXXVI] | – | 15 ± 2 µM | – |
| CCCOc1ccc(C(=O)CCC(=O)OCC(=O)C(C#N)=C2Nc3ccccc3N2)cc1 [XXXV] | – | 6.1 ± 0.6 µM | – |
| Nc1nc(CCl)nc(Nc2cccc3ccccc23)n1 [XXX] | – | 14 ± 3 µM | – |
